Columns and labels:
[1] = system: Pythium ultimum; assay: Pythium ultimum / liquid culture (seedling damping off); type: cell-based; conditions: Globisporangium ultimum, liquid culture in PDB, 24° C., 2-3 days after application, read-out: inhibit fungal infestation (inhibition of growth determined photometrically)
[2] = system: Phytophthora infestans; assay: whole plant or invertebrate; type: in vivo; conditions: in Solanum lycopersicum, foliar, read-out: inhibit fungal infestation (percent disease control compared to untreated)
[3] = system: Plasmopara viticola; assay: Plasmopara viticola / grape / leaf disc preventative; type: in vivo; conditions: foliar, grape vine leaf disks, inoculated 1 day after application, assessed 6-8 days after application, read-out: inhibit fungal infestation (percent disease control compared to untreated)
[4] = system: Blumeria qraminis f. sp. tritici (Erysiphe qraminis f. sp. tritici); assay: Blumeria graminis f. sp. tritici / wheat / leaf disc preventative (powdery mildew on wheat); type: in vivo; conditions: foliar, wheat leaf segments cv. Kanzler, inoculated 1 day after application, assessed 6-8 days after application, read-out: inhibit fungal infestation (percent disease control compared to untreated)

| Structure (SMILES) | melting point | inhibition at 200 ppm [1] | inhibition at 200 ppm [2] | inhibition at 200 ppm [3] | inhibition at 200 ppm [4] |
| --- | --- | --- | --- | --- | --- |
| COC(Oc1cc(Cl)c2ncc(Br)cc2c1)C(=O)NC(C)(C)c1ccccn1 (centres unmarked) [Compound 14] | 95 °C |  |  |  |  |
| C#Cc1cnc2ccc(OC(SC)C(=O)NC(C)(C)c3ccncc3)cc2c1 (centres unmarked) [Compound 35] |  | ≥ 80% |  |  |  |
| C#Cc1cnc2c(C)cc(OC(SC)C(=O)NC(C)(C)c3ccncc3)cc2c1 (centres unmarked) [Compound 36] |  | ≥ 80% | ≥ 80% | ≥ 80% |  |
| C#Cc1cnc2ccc(OC(SC)C(=O)NC3(c4ccccn4)CC3)cc2c1 (centres unmarked) [Compound 37] |  | ≥ 80% | ≥ 80% |  | ≥ 80% |
| C#Cc1cnc2c(C)cc(OC(SC)C(=O)NC3(c4ccccn4)CC3)cc2c1 (centres unmarked) [Compound 38] |  | ≥ 80% |  | ≥ 80% |  |
| C#Cc1cnc2ccc(OC(SC)C(=O)NC(C)(C)c3cc(C(=O)OC)on3)cc2c1 (centres unmarked) [Compound 40] |  | ≥ 80% | ≥ 80% |  |  |
| C#Cc1cnc2c(C)cc(OC(SC)C(=O)NC(C)(C)c3cc(C(=O)OC)on3)cc2c1 (centres unmarked) [Compound 41] |  | ≥ 80% |  | ≥ 80% |  |
| C#Cc1cnc2c(C)cc(OC(SC)C(=O)NC(C)(C)c3cc(CO)on3)cc2c1 (centres unmarked) [Compound 43] |  | ≥ 80% | ≥ 80% | ≥ 80% |  |
| C#Cc1cnc2ccc(OC(SC)C(=O)NC(C)(C)c3nocc3I)cc2c1 (centres unmarked) [Compound 49] |  | ≥ 80% | ≥ 80% | ≥ 80% |  |
| C#Cc1cnc2ccc(OC(SC)C(=O)NC(C)(C)c3noc4ccccc34)cc2c1 (centres unmarked) [Compound 50] |  | ≥ 80% |  | ≥ 80% |  |
| C#Cc1cnc2ccc(OC(SC)C(=O)NC(C)(C)c3cc(COC)on3)cc2c1 (centres unmarked) [Compound 52] |  | ≥ 80% | ≥ 80% | ≥ 80% | ≥ 80% |
| C#Cc1cnc2ccc(OC(SC)C(=O)NC(C)(C)c3noc(C)c3Cl)cc2c1 (centres unmarked) [Compound 54] |  | ≥ 80% | ≥ 80% | ≥ 80% | ≥ 80% |
| C#Cc1cnc2ccc(OC(OC)C(=O)NC(C)(C)c3ccccn3)cc2c1 (centres unmarked) [Compound 55] |  | ≥ 80% | ≥ 80% |  | ≥ 80% |
| C#Cc1cnc2c(C)cc(OC(SC)C(=O)NC(C)(C)c3cccnc3)cc2c1 (centres unmarked) [Compound 56] |  | ≥ 80% |  | ≥ 80% |  |
| C#Cc1cnc2ccc(OC(SC)C(=O)NC(C)(C)c3cccnc3)cc2c1 (centres unmarked) [Compound 57] |  | ≥ 80% |  |  |  |
| C#Cc1cnc2ccc(OC(SC)C(=O)NC(C)(C)c3csc([Si](C)(C)C)n3)cc2c1 (centres unmarked) [Compound 58] |  | ≥ 80% |  |  |  |
| C#Cc1cnc2ccc(OC(SC)C(=O)NC(C)(C)c3nscc3C(=O)OC)cc2c1 (centres unmarked) [Compound 61] |  | ≥ 80% |  | ≥ 80% |  |
| C#Cc1cnc2ccc(OC(SC)C(=O)NC(C)(C)c3cc(C(=O)OC)sn3)cc2c1 (centres unmarked) [Compound 62, methyl 3-[1-[[2-[(3-ethynyl-6-quinolyl)oxy]-2-methylsulfanyl-acetyl]amino]-1-methyl-ethyl]isothiazole-5-carboxylate] |  | ≥ 80% |  | ≥ 80% | ≥ 80% |
| C#Cc1cnc2ccc(OC(SC)C(=O)NC(C)(C)c3nc(C)c(C)s3)cc2c1 (centres unmarked) [Compound 63] |  | ≥ 80% |  |  | ≥ 80% |
| C#Cc1cnc2ccc(OC(SC)C(=O)NC(C)(C)c3nocc3Br)cc2c1 (centres unmarked) [Compound 64] |  | ≥ 80% | ≥ 80% | ≥ 80% | ≥ 80% |
| CSc1cnc2ccc(OC(SC)C(=O)NC(C)(C)c3nocc3Br)cc2c1 (centres unmarked) [Compound 65] |  | ≥ 80% |  |  |  |
| CSc1cnc2ccc(OC(SC)C(=O)NC(C)(C)c3cc(C)on3)cc2c1 (centres unmarked) [Compound 66] |  | ≥ 80% |  | ≥ 80% |  |
| C#Cc1cnc2c(C)cc(OC(SC)C(=O)NC(C)(C)c3cc(C)on3)cc2c1 (centres unmarked) [Compound 67] |  | ≥ 80% | ≥ 80% | ≥ 80% | ≥ 80% |
| C#Cc1cnc2c(F)cc(OC(SC)C(=O)NC(C)(C)c3cc(C)on3)cc2c1 (centres unmarked) [Compound 69] |  | ≥ 80% | ≥ 80% | ≥ 80% | ≥ 80% |
| C#Cc1cnc2cc(F)c(OC(SC)C(=O)NC(C)(C)c3cc(C)on3)cc2c1 (centres unmarked) [Compound 70] |  |  | ≥ 80% |  |  |
| CSc1cnc2ccc(OC(SC)C(=O)NC(C)(C)c3cc(Cl)on3)cc2c1 (centres unmarked) [Compound 71] |  | ≥ 80% |  | ≥ 80% |  |
| C#Cc1cnc2c(C)cc(OC(SC)C(=O)NC(C)(C)c3cc(Cl)on3)cc2c1 (centres unmarked) [Compound 72] |  | ≥ 80% | ≥ 80% | ≥ 80% |  |

| Structure (SMILES) | melting point | inhibition at 200 ppm [1] | inhibition at 200 ppm [2] | inhibition at 200 ppm [3] | inhibition at 200 ppm [4] |
| --- | --- | --- | --- | --- | --- |
| CSc1cnc2ccc(OC(SC)C(=O)NC(C)(C)c3nocc3C)cc2c1 (centres unmarked) [Compound 74] |  | ≥ 80% |  |  |  |
| C#Cc1cnc2c(Cl)cc(OC(SC)C(=O)NC(C)(C)c3nocc3C)cc2c1 (centres unmarked) [Compound 76] |  | ≥ 80% | ≥ 80% | ≥ 80% |  |
| C#Cc1cnc2c(F)cc(OC(SC)C(=O)NC(C)(C)c3nocc3C)cc2c1 (centres unmarked) [Compound 77] |  | ≥ 80% | ≥ 80% | ≥ 80% | ≥ 80% |
| C#Cc1cnc2ccc(OC(SC)C(=O)NCc3ncc(C)s3)cc2c1 (centres unmarked) [Compound 79] |  | ≥ 80% |  |  | ≥ 80% |
| C#Cc1cnc2ccc(OC(SC)C(=O)NC(C)(C)c3cc(CC)on3)cc2c1 (centres unmarked) [Compound 82] |  | ≥ 80% | ≥ 80% | ≥ 80% | ≥ 80% |
| C#Cc1cnc2ccc(OC(SC)C(=O)NC(C)(C)c3cc(C(F)(F)F)on3)cc2c1 (centres unmarked) [Compound 83] |  | ≥ 80% | ≥ 80% | ≥ 80% | ≥ 80% |
| C#Cc1cnc2c(F)cc(OC(SC)C(=O)NC(C)(C)c3cc(COC)on3)cc2c1 (centres unmarked) [Compound 89] |  | ≥ 80% | ≥ 80% | ≥ 80% | ≥ 80% |
| C#Cc1cnc2c(F)cc(OC(SC)C(=O)NC(C)(C)c3cc(C(F)(F)F)on3)cc2c1 (centres unmarked) [Compound 91] |  |  | ≥ 80% | ≥ 80% |  |
| C#Cc1cnc2c(C)cc(OC(SC)C(=O)NC(C)(C)c3cc(CC)on3)cc2c1 (centres unmarked) [Compound 94] |  | ≥ 80% | ≥ 80% | ≥ 80% | ≥ 80% |
| C#Cc1cnc2c(Cl)cc(OC(SC)C(=O)NC(C)(C)c3cc(COC)on3)cc2c1 (centres unmarked) [Compound 96] |  | ≥ 80% | ≥ 80% | ≥ 80% | ≥ 80% |
| C#Cc1cnc2c(Cl)cc(OC(SC)C(=O)NC(C)(C)c3cc(C(F)(F)F)on3)cc2c1 (centres unmarked) [Compound 99] |  |  |  | ≥ 80% |  |
| COCc1cc(C(C)(C)NC(=O)C(Oc2ccc3ncc(SC)cc3c2)SC)no1 (centres unmarked) [Compound 100] |  | ≥ 80% | ≥ 80% | ≥ 80% |  |
| CCc1cc(C(C)(C)NC(=O)C(Oc2ccc3ncc(SC)cc3c2)SC)no1 (centres unmarked) [Compound 103] |  | ≥ 80% |  | ≥ 80% |  |
| CSc1cnc2ccc(OC(SC)C(=O)NC(C)(C)c3cc(C(F)(F)F)on3)cc2c1 (centres unmarked) [Compound 104] |  | ≥ 80% |  | ≥ 80% |  |
| COCc1cc(C(C)(C)NC(=O)C(Oc2ccc3ncc(I)cc3c2)SC)no1 (centres unmarked) [Compound 105] |  | ≥ 80% | ≥ 80% | ≥ 80% | ≥ 80% |
| CSC(Oc1ccc2ncc(I)cc2c1)C(=O)NC(C)(C)c1cc(C(F)(F)F)on1 (centres unmarked) [Compound 108] |  | ≥ 80% |  | ≥ 80% |  |
| CSC(Oc1ccc2ncc(I)cc2c1)C(=O)NC(C)(C)c1cc(C)on1 (centres unmarked) [Compound 109] |  | ≥ 80% | ≥ 80% | ≥ 80% | ≥ 80% |
| CSC(Oc1ccc2ncc(I)cc2c1)C(=O)NC(C)(C)c1nocc1C (centres unmarked) [Compound 110] |  | ≥ 80% | ≥ 80% | ≥ 80% | ≥ 80% |
| CSc1cnc2ccc(OC(SC)C(=O)NC(C)(C)c3cccc(C)n3)cc2c1 (centres unmarked) [Compound 114] |  | ≥ 80% |  |  |  |
| C#Cc1cnc2c(F)cc(OC(SC)C(=O)NCc3nccs3)cc2c1 (centres unmarked) [Compound 115] |  | ≥ 80% |  |  | ≥ 80% |
| CSc1cnc2ccc(OC(SC)C(=O)NCc3nccs3)cc2c1 (centres unmarked) [Compound 118] |  | ≥ 80% |  |  |  |
| C#Cc1cnc2c(F)cc(OC(SC)C(=O)NCc3nc(C)cs3)cc2c1 (centres unmarked) [Compound 119] |  | ≥ 80% |  | ≥ 80% | ≥ 80% |
| C#Cc1cnc2c(Cl)cc(OC(SC)C(=O)NCc3nc(C)cs3)cc2c1 (centres unmarked) [Compound 120] |  | ≥ 80% |  | ≥ 80% | ≥ 80% |
| CSc1cnc2ccc(OC(SC)C(=O)NCc3nc(C)cs3)cc2c1 (centres unmarked) [Compound 121] |  | ≥ 80% |  |  |  |
| C#Cc1cnc2c(F)cc(OC(SC)C(=O)NCc3ncc(C)s3)cc2c1 (centres unmarked) [Compound 122] |  | ≥ 80% |  |  | ≥ 80% |
| CSC(Oc1cc(C)c2ncc(I)cc2c1)C(=O)NCc1cccnc1 (centres unmarked) [Compound 125] |  | ≥ 80% |  |  |  |
| CSC(Oc1cc(C)c2ncc(I)cc2c1)C(=O)NCc1ccc(Cl)nc1 (centres unmarked) [Compound 127] |  |  |  |  | ≥ 80% |

— patent publication US20140045890A1, “NOVEL COMPOUNDS” (SYNGENTA PARTICIPATIONS AG, priority 2011, published 2014)
